Assay results from PMC7284125, “Identification of annotated bioactive molecules that impair motility of the blood fluke Schistosoma mansoni” (International Journal for Parasitology: Drugs and Drug …, 2020).
Read-outs that look alike come from different tables or passages of the source.

Assays:
[1] = system: S. mansoni schistosomulae; test: Phenotypic primary screen assay on schistosomulae (phenotype; viability by methylene blue dye exclusion); format: cell-based; conditions: Schistosoma mansoni; three-day-old schistosomulae, 10 μM, 24 h; calculated 5 days post compound exposure; read-out: Viability (%)
[2] = system: S. mansoni adult worms; test: Motility assay on adult parasites (pixel displacement, relative to DMSO control); format: cell-based, Schistosoma mansoni; conditions: 10 μM; for Fractional motility: secondary screen; for motility phenotype in words: adults, long-term after washout
In short: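 Unpaired adult worms from mice 6 weeks post-infection kept in OPTI-MEM with 5% dialyzed FBS and exposed to compounds at 1 and 10 μM for 24 h. Motility filmed 1 min at 10 frames/s, quantified by pixel displacement versus DMSO-treated worms; recovery followed up to five days after washout.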

[3] = system: S. mansoni schistosomulae; test: Motility assay on schistosomulae (pixel displacement, relative to DMSO control); format: cell-based, Schistosoma mansoni; conditions: for activity at 1 µM: Schistosoma mansoni, read-out: Fractional motility
In short: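 Mechanically transformed S. mansoni schistosomulae (200/well) in Opti-MEM with 5% dialyzed FBS were exposed to compounds at 1 and 10 μM for 24 h at 37 °C, 5% CO2. Motility filmed at 10 frames/s for 1 min and quantified by pixel displacement relative to DMSO-treated controls.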

[4] = system: S. mansoni schistosomulae; test: Phenotypic primary screen assay on schistosomulae (phenotype; viability by methylene blue dye exclusion); format: cell-based, Schistosoma mansoni; conditions: three-day-old schistosomulae, 10 μM, 24 h; estimated 5 days post compound exposure
In short: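 Parasites lacking contraction/relaxation cycles and showing dark internal granulations counted as dead. Movement and body shape were compared with DMSO-treated controls under a stereo microscope at 24 h and at five days of exposure. Larvae came from infected snails shed under light for 2 h at 32 °C.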

[5] = 120 h, schistosomulae, secondary screen, 24h exposure, read at D5, 1 µM
[6] = schistosomulae, secondary screen, 24h exposure, read at D1, 1 µM
[7] = schistosomulae, secondary screen, 24h exposure, read at D1, 10 µM
[8] = schistosomulae, secondary screen, 24h exposure, read at D5, 10 µM

| SMILES | viability at 10 µM [1] | Fractional motility ([2]; D1, Female adult worms) | Fractional motility ([2]; D1, Male adult worms) | Fractional motility ([2]; D5, Female adult worms) | Fractional motility ([2]; D5, Male adult worms) | activity at 1 µM [3, 5] | activity at 1 µM [3, 6] | Fractional motility [3, 7] | Fractional motility [3, 8] | Phenotype [4] | motility phenotype in words [2] | activity at 1 µM ([3]; 120 h, Selleckchem customized library secondary screen, 24h, D5, 1 µM) | Fractional motility ([3]; Selleckchem customized library secondary screen, 24h, D1, 10 µM) | Fractional motility ([3]; Selleckchem customized library secondary screen, 24h, D5, 10 µM) | stimulated motility relative to control ([3]; schistosomulae, throughout the course of the experiment) | activity at 1 µM ([3]; 24 h) | activity at 1 µM ([3]; 120 h) |
| --- | --- | --- | --- | --- | --- | --- | --- | --- | --- | --- | --- | --- | --- | --- | --- | --- | --- |
| C=CC(=O)N1CCC[C@@H](n2nc(-c3ccc(Oc4ccccc4)cc3)c3c(N)ncnc32)C1 [Ibrutinib] | 84.5% | 0.33 | 2.36 | 0.36 | 0.94 | 244% | -18% | 0.000588 | -0.29 | dark, granulated | – | – | – | – | – | – | – |
| CC(C(O)c1ccc(O)cc1)N1CCC(Cc2ccccc2)CC1 (stereo not shown) [Ifenprodil] | 98.5% | 1.05 | 1.73 | -0.36 | -0.44 | 11% | 81% | 0.47 | -0.10 | abnormal morphology, granulated | – | – | – | – | – | – | – |
| Cc1ccc(C(=O)N(CCCN)[C@@H](c2nc3cc(Cl)ccc3c(=O)n2Cc2ccccc2)C(C)C)cc1 [Ispinesib] | 96% | 3.19 | 2.22 | -0.34 | -0.33 | 125% | 24% | -0.92 | -0.39 | big, granulated | – | – | – | – | – | – | – |
| Cc1cc(Nc2ncc(Cl)c(Nc3ccccc3S(=O)(=O)C(C)C)n2)c(OC(C)C)cc1C1CCNCC1 [LDK378] | 0% | -0.38 | -0.0381 | -0.63 | -0.31 | 120% | 7% | -0.83 | -0.96 | dark, granulated | Significant hypomotility | – | – | – | – | – | – |
| CCOC(=O)C1=C(C)NC(C)=C(C(=O)OCC)C1c1ccccc1/C=C/C(=O)OC(C)(C)C [Lacidipine] | 99% | -0.73 | -0.50 | -0.82 | -0.53 | -11% | 99% | 3.79 | 0.28 | granulated | – | – | – | – | – | – | – |
| Cc1cccc(C(C)c2cnc[nH]2)c1C (stereo not shown) [Medetomidine] | 100% | 1.05 | 2.75 | -0.85 | 0.31 | 10% | -39% | -0.24 | 0.20 | elongated | – | – | – | – | – | – | – |
| NCC(=O)Nc1ccc(-n2nc(C(F)(F)F)cc2-c2ccc3c(ccc4ccccc43)c2)cc1 [OSU-03012] | 1% | 0.79 | 1.37 | -0.15 | 0.62 | 26% | 26% | -1.00 | -0.72 | big, granulated | – | – | – | – | – | – | – |
| CCCCCCCCOc1ccccc1C(=O)Nc1ccc(C(=O)OCC[N+](C)(CC)CC)cc1 [Otilonium] | 98.5% | 0.10 | 0.16 | -0.67 | -0.65 | 31% | -72% | 0.56 | -0.13 | blebbing | – | – | – | – | – | – | – |
| CCCN1C[C@H](CSC)C[C@@H]2c3cccc4[nH]cc(c34)C[C@H]21 [Pergolide] | 99% | 0.25 | 2.14 | -0.82 | -0.30 | -25% | 139% | 18.64 | -0.34 | big, round | – | – | – | – | – | – | – |
| COCCCN1CCC(NC(=O)c2cc(Cl)c(N)c3c2OCC3)CC1 [Prucalopride] | 96% | -0.26 | 0.72 | -0.27 | 0.34 | -11% | 121% | 6.36 | -0.28 | elongated | – | – | – | – | – | – | – |
| CC(C)(C)c1cc(NC(=O)Nc2ccc(-c3cn4c(n3)sc3cc(OCCN5CCOCC5)ccc34)cc2)no1 [Quizartinib] | 54% | 0.64 | 4.64 | -0.59 | -0.09 | -2.37% | – | – | -0.36 | granulated | – | – | – | – | – | – | – |
| Cc1c(C(=O)NN2CCCCC2)nn(-c2ccc(Cl)cc2Cl)c1-c1ccc(Cl)cc1 [Rimonabant] | 98.5% | -0.30 | 0.0659 | -0.41 | -0.55 | -21% | 433% | 12.27 | 4.07 | abnormal morphology, granulated | – | – | – | – | – | – | – |
| Cc1ccc(C(=O)N(CCCN)[C@@H](c2oc3cc(Cl)ccc3c(=O)c2Cc2ccccc2)C(C)C)cc1 [SB743921] | 70% | 1.14 | 1.48 | -0.87 | 0.0641 | 17% | 74% | 1.32 | -0.89 | big, dark | – | – | – | – | – | – | – |
| CN1CCC(CNc2ccc3ncc(-c4cccc(OC(F)(F)F)c4)n3n2)CC1 [SGI-1776] | 92.5% | 3.98 | 9.87 | 0.50 | 0.36 | – | – | – | – | dark | – | 35% | 121.95 | 114.81 | > 100 fold | – | – |
| O=C(O[C@H]1CN2CCC1CC2)N1CCc2ccccc2[C@@H]1c1ccccc1 [Solifenacin] | 96.5% | 1.59 | 2.65 | -0.55 | 0.28 | – | – | 1.46 | 0.44 | elongated, granulated, blebbing | – | – | – | – | – | -30% | -59% |
| COc1ccc2cc1Oc1ccc(cc1)C[C@H]1c3cc(c(OC)cc3CCN1C)Oc1c(OC)c(OC)cc3c1[C@H](C2)N(C)CC3 [Tetrandrine] | 89% | -0.51 | -0.37 | -0.97 | -0.61 | -31% | -9% | -0.39 | -0.87 | big, granulated | strongly impaired movement | – | – | – | – | – | – |
